Experimental findings from ChEMBL document CHEMBL4480376, “Studies on spiro[4.5]decanone prolyl hydroxylase domain inhibitors” (Medchemcomm, 2019) are described below.

pIC50: −log10 of the molar value. Activity calls are given as the source filed them. The rule behind the calls is not given here.

Assay [1] deals with Egl nine homolog 1 (Homo sapiens) (UniProt Q9GZT9). Briefly: Inhibition of N-terminal His6-tagged truncated PHD2 (181 to 426 residues) (unknown origin) expressed in Escherichia coli BL21 DE3 using H1F1-alpha CODD as substrate preincubated for 15 mins followed by substrate addition and measured after 15 mins by mass spectrometry.
Assay [2] has the same target. In words: Inhibition of N-terminal His6-tagged truncated PHD2 (181 to 426 residues) (unknown origin) expressed in Escherichia coli BL21 DE3 using H1F1-alpha NODD as substrate preincubated for 15 mins followed by substrate addition and measured after 15 mins by mass spectrometry.
Assay [3] addresses T1, Lysine-specific demethylase 4A (Homo sapiens, UniProt O75164).
T1 sequence (O75164 whole entry): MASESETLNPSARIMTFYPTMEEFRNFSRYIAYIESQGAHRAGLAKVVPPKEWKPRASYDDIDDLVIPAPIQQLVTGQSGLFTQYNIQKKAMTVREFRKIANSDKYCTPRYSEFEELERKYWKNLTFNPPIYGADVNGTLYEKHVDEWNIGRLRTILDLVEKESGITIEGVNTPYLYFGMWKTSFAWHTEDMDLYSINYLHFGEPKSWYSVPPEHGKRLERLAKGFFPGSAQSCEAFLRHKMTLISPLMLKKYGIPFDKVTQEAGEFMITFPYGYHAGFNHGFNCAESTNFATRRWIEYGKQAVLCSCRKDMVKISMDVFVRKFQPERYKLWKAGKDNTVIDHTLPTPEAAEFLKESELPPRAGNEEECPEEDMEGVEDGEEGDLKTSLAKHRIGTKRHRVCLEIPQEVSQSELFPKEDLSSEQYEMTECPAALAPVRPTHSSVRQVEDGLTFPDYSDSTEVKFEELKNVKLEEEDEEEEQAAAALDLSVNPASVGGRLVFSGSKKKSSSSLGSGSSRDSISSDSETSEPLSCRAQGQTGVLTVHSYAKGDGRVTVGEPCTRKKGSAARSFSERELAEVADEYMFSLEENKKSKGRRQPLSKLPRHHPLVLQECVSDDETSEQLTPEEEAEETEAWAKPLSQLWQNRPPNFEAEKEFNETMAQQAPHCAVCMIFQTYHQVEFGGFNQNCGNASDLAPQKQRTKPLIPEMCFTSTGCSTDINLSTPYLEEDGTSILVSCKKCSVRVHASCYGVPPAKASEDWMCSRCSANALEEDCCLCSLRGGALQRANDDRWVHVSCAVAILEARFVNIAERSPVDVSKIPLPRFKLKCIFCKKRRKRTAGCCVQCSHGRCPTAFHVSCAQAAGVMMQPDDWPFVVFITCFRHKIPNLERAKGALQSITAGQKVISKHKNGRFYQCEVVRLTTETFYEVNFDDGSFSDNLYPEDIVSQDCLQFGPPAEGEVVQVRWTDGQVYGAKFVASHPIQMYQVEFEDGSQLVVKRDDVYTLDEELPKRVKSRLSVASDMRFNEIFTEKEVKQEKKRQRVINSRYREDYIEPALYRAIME
In words: Inhibition of KDM4A (unknown origin) using H3 K9Me3 (1 to 15 residues) as substrate.

Assay [4] is described as follows: Inhibition of FIH (unknown origin) using HIF-1alpha CAD (D788 to L822 residues) as substrate. Set-up: species or system Homo sapiens.

Chain of Egl nine homolog 1 (Homo sapiens) (Q9GZT9 2-426 limits assumed): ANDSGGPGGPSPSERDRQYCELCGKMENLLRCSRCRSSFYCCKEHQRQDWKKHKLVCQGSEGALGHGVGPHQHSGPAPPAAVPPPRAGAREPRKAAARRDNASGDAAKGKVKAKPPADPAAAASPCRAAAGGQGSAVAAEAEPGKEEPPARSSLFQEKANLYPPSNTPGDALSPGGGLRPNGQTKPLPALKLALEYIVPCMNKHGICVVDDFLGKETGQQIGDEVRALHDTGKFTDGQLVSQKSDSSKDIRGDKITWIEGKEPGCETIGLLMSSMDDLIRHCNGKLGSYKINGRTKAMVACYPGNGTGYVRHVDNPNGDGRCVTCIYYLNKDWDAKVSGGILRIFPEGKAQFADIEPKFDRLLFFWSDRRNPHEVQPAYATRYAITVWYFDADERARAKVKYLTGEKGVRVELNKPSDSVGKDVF

For `O=C(Nc1ccc(-c2ccccc2)cc1)C1CCN(Cc2ncccc2O)CC1`, the inhibition entry in assay [1] and in assay [2] was “inactive” throughout.
In the case of `O=C1N(c2ccc(-c3ccccc3)cc2)C(=O)C2(CCN(Cc3cccs3)CC2)N1c1ncccn1`, the pIC50 in assay [3] and in assay [4] was under 4.60 each time.
Consider `Cc1cccnc1CN1CCC2(CC1)C(=O)N(c1ccc(-c3ccccc3)cc1)C(=O)N2c1cc(C(=O)O)ccn1`, for which the pIC50 in assay [3] and in assay [4] was under 4.60 each time.
The compound `Cc1cccnc1CN1CCC2(CC1)C(=O)N(c1ccc(-c3ccccc3)cc1)C(=O)N2c1ncccn1` had a pIC50 in assay [4] of under 4.60.
On to `COc1ccnc(N2C(=O)N(c3ccc(-c4ccccc4)cc3)C(=O)C23CCN(Cc2ncccc2C)CC3)n1`, for which the values for the negative logarithm of the IC50 (pIC50) in assay [3] and in assay [4] were under 4.60 and 4.67, respectively.
In the case of `O=C1N(c2ccc(-c3ccccc3)cc2)C(=O)C2(CCNCC2)N1c1ncccn1`, the pIC50 in assay [3] and in assay [4] was under 4.60 each time.
Take `Cc1cccnc1CN1CCCC(C(=O)Nc2ccc(-c3ccccc3)cc2)C1` (centres undefined): the inhibition result in assay [1] and in assay [2] was “inactive” in each case.
Regarding `Cn1ccnc1CN1CCC2(CC1)C(=O)N(c1ccc(-c3ccccc3)cc1)C(=O)N2c1ncccn1`, the pIC50 in assay [3] and in assay [4] was under 4.60 in each case.
On to `O=C1N(c2ccc(-c3ccccc3)cc2)C(=O)C2(CCN(Cc3ccccc3O)CC2)N1c1ncccn1`, for which the figures for the pIC50 in assay [3] and in assay [4] were 4.91 and under 4.60, respectively.
On to `O=C(Nc1ccc(-c2ccccc2)cc1)C1CCN(Cc2ccccc2O)CC1`, for which the inhibition result in assay [1] and in assay [2] was “inactive” each time.
For the compound `O=C1N(c2ccc(-c3ccccc3)cc2)C(=O)C2(CCN(Cc3ncc[nH]3)CC2)N1c1ncccn1`, the pIC50 in assay [3] and in assay [4] was under 4.60 in each case.
With `O=C(NCc1ccc(-c2ccccc2)cc1)C1CCN(Cc2ccccc2O)CC1`, the inhibition entry in assay [1] and in assay [2] was “inactive” each time.
As for `Cc1cccnc1CN1CCC(C(=O)NCc2ccc(-c3ccccc3)cc2)CC1`, the inhibition entry in assay [1] and in assay [2] was “inactive” throughout.
Regarding `O=C(NCc1ccc(-c2ccccc2)cc1)C1CCN(Cc2ncccc2O)CC1`, the inhibition entry in assay [1] and in assay [2] was “inactive” throughout.
As for `Cn1ccnc1CN1CCC2(CC1)NC(=O)N(c1ccc(-c3ccccc3)cc1)C2=O`, the negative logarithm of the IC50 (pIC50) in assay [3] and in assay [4] was under 4.60 each time.
In the case of `COc1cccc(CN2CCC3(CC2)C(=O)N(c2ccc(-c4ccccc4)cc2)C(=O)N3c2ncccn2)n1`, the pIC50 in assay [3] and in assay [4] was under 4.60 each time.
As to `Cc1cccnc1CN1CCC2(CC1)NC(=O)N(c1ccc(-c3ccccc3)cc1)C2=O`, the pIC50 in assay [3] and in assay [4] was under 4.60 each time.
With `O=C(Nc1ccc(-c2ccccc2)cc1)C1CCCN(Cc2ncccc2O)C1` (centres undefined), the inhibition result in assay [1] and in assay [2] was “inactive” in each case.
For the compound `Cc1cccnc1CN1CCC(C(=O)Nc2ccc(-c3ccccc3)cc2)CC1`, the inhibition entry in assay [1] and in assay [2] was “inactive” each time.
`O=C(Nc1ccc(-c2ccccc2)cc1)C1CCCN(Cc2ccccc2O)C1` (centres undefined): the inhibition entry in assay [1] and in assay [2] was “inactive” each time.

For orientation: pIC50 means the negative decadic logarithm of the IC50, by convention in mol/L. High values mean a small IC50, low ones a large IC50.
